Reference: US20210290680A1, “METHODS AND COMPOSITIONS FOR MODULATING CELLULAR AGING” (Dorian Therapeutics, Inc., priority 2019, published 2021)

Columns and labels:
Format in all cases: cell-based, human
NALM cells = experiment: Re-challenge cytotoxicity assay, CD19.CAR T cells; conditions: after double tumor-challenge, n=3
Experimental: (§1) Primary T cells were activated as described (Example 3), transduced with a lentivirus encoding for either a CD19.CAR or a GD2.CAR co-expressing shUSP16 #1, shUSP16 #2 or a scrambled shRNA (Control). Cells were cultured in IL-2 and sorted between days 6-13 for EGFRt. At day 16 cytotoxicity assays were performed. Briefly, cells were counted and 100,000 T cells (adjusted for EGFR expression) were plated at 1:5 Effector:Target (E:T) ratio. At 72 hours, the mixture of tumor cells and T cells were collected, stained for CD3-PE, CD8-BV510, CD19- or GD2-APC, EGFR-AF488 and Sytox and counted by flow cytometry (MACSQuant, Miltenyi Biotec) (FIGS. 30A and 30B). Counting beads (CountBright Absolute Counting beads, Invitrogen) were added before acquisition and absolute number was calculated as following (number of cell events/number of bead events)×(assigned bead count of the lot (beads/50 ul)/volume of sample (ul))=concentration of sample as cells/ul). NALM cells were used as target cells for CD19.CAR T cells and CHLA-55 cells were used as target for GD2.CAR T cells. Three different primary T cell cultures were tested for CD19 and GD2 CAR.
At day 16, regular cytotoxicity assays were also performed (Example 22). Three days post-antigen stimulation, CD19.CAR T cells were stained for EGFR-AF488 (R&D), CD3-PE, CD8-BV510, PD-1-Allophycocyanin and Lag-3 and CTLA4 (Biolegend) and acquired by MACSQuant (Miltenyi Biotec). The co-cultures we also re-challenged with the addition of fresh tumor cells. T cell killing and expansion upon double tumor-challenge was assessed after three days.

primary T cells = experiment: Stem cell memory T cell phenotype by flow cytometry (CD45RA+CD62L+); conditions: for stem cell frequency (Tscm phenotype ratio), fold increase over Control: day 20, gated on CD8
Experimental: Primary T cells were activated as described (Example 3), transduced with a lentivirus encoding for either a shUSP16 or a non-targeting shRNA (Ctrl) and sorted for GFP on day 8. Cells were cultured in the presence of IL-2 and their phenotype was analyzed at day 20. Cells were stained for CD4-PerCP-5.5 or CD8-BV510, CD62L-Allophycocyanin, CD45RA-BV510 or PE-Cy7 (Biolegend). Naïve or stem cell memory T cells (TNa/SCM) were identified as Sytox^− GFP^+CD45RA^+CD62L^+. Number of TNa/SCM was calculated as (#CD4 or CD8 T cells*TNa/SCMpercentage)/100. Flow cytometry was performed on the MACQuant (Myltenyi Biotec) and the data analyzed with FlowJo (shCtrl vs shUSP CD4: 0.4978 vs 0.7915, p=0.0673 and CD8: 2.469 vs 4.984, p=0.00392, n=7). Downregulation of USP16 expression increases the number of CD4+CD45RA+CD62L+(FIG. 11A) and CD8+CD45RA+CD62L+(FIG. 11B) cells in culture by 1.7 (p=0.0205) and 1.9 (p=0.0097) times, respectively.
Primary T cells were activated as described (Example 3), transduced with a lentivirus encoding either a shUSP16 #1, shUSP16 #2 or a non-targeting shRNA (shCtrl) and cells were selected with puromycin at day 6. At day 15 cell were collected and analyzed by qPCR for the expression of LEF1 (FIG. 16A) and TCF7 (FIG. 16B), downstream regulators of the WNT pathway. At day 20, cells were stained for CD4-PE, CD8-BV510, CD62L-Allophycocyanin and CD45RA-APC-Cy7 (Biolegend). Stem cell memory T cells (Tscm) were identified as Sytox^− GFP^+CD45RA^+CD62L^+, central memory T cells (Tcm) as Sytox^−GFP^+CD45RA^−CD62L^+, effector memory T cells (Tem) as Sytox^−GFP^+CD45RA^−CD62L^−, and terminal effector T cell (Teff) as Sytox^−GFP^+CD45RA^+CD62L^− (FIG. 17A). Cells were gated on the CD8 population. The specific increase of Tscm was shown as phenotype ratio (FIG. 17B).
Primary T cells were activated as described (Example 3). At Day 6 post-activation, dynabeads were removed and T cells electroporated using the Neon Transfection System (ThermoFisher) with a 2.5:1 ratio sgRNA:Cas9. The experiment was performed following the protocol optimized for primary T cell by Synthego (CRISPR Editing Human Primary CD4+ T cells with RNPs using Neon Electroporation Protocol, 2018 version). The sgRNA used are the following: gUSP16 #1 5′-[…]-3′ (SEQ ID NO: 10) and gSynthego that comprises 3 different sgRNAs (gRNA-A: 5′-[…] 3′ (SEQ ID NO: 11); gRNA-B: 5′-[…]-3′ (SEQ ID NO: 12); gRNA-C: 5′-[…]-3′ (SEQ ID NO: 13)). Control T cells, identified as Mock, were electroporated but no Cas9:sgRNA mixture was added. […] At day 15 post-activation, cells were stained for CD4-PE, CD8-BV510, CD62L-Allophycocyanin and CD45RA-APC-Cy7 (Biolegend). Stem cell memory T cells (Tscm) were identified as Sytox^−GFP^+CD45RA^+CD62L^+ and graphed as ratio compared to mock cells (FIG. 22). The experiment was repeated using primary T cells obtained from buffy coats of 2 different healthy donors.
Primary T cells were activated as described (Example 3), transduced with a lentivirus encoding for either a CD19.CAR or a GD2.CAR co-expressing shUSP16 #1, shUSP16 #2 or a scrambled shRNA (Control). At day 15, GD2.CAR and CD19.CAR T cells were stained for EGFR-AF488 (R&D), CD3-PE, CD8-BV510, CD62L-Allophycocyanin and CD45RA-APC-Cy7 (Biolegend). Stem cell memory T cells (Tscm) were identified as FITC^+CD45RA^+CD62L^+, central memory T cells (Tcm) as FITC^+CD45RA^−CD62L^+, effector memory T cells (Tem) as FITC^+CD45RA^−CD62L^−, and terminal effector T cell (Teff) as FITC^+CD45RA^+CD62L^−. Cells were gated on the CD8 population. The specific increase of Tscm was shown as phenotype ratio (FIGS. 28A and 28B).

CHLA-55 cells = experiment: CAR-T in vitro cytotoxicity assay, GD2.CAR T cells; conditions: 1:5 E:T, 72 hours, n=3
Experimental: as §1

Substance | T cell number (NALM cells) | residual tumor cells (NALM) (NALM cells) | stem cell frequency (Tscm), fold change vs Control (primary T cells; CD19.CAR, day 15, n=5) | stem cell frequency (Tscm), fold change vs Control (primary T cells; GD2.CAR, day 15, n=4) | stem cell frequency (Tscm phenotype ratio), fold increase over Control (primary T cells) | CHLA-55 residual cells (CHLA-55 cells) | T cell number (CHLA-55 cells)
shUSP16 #1: shRNA targeting USP16, 5′-GACTGTAAGACTGACAATAAA-3′ (SEQ ID NO: 8), pSIH backbone or co-expressed in CAR plasmid | 192643 | 282761 | 1.994 | 1.347 | 2.022 | 159531 | 79566
shUSP16 #2: shRNA targeting USP16, 5′-TATATCAGTTCACCCGTAAT-3′ (SEQ ID NO: 9), pSIH backbone or co-expressed in CAR plasmid | 204291 | 160874 | 2.273 | 1.383 | 2.63 | 129186 | 194025
